Measured values taken from the supplement of paper PMC10307832.

Key:
Assay in all cases: relative viability (nuclei count vs DMSO), 5 days (fraction); higher = more cells survive
AZ505 + Luminespib = compound: C1CCC(CC1)N(CCNCCC2=C3C(=C(C=C2)O)NC(=O)CO3)C(=O)CCNCCC4=CC(=C(C=C4)Cl)Cl [AZ505] + CCNC(=O)c1noc(-c2cc(C(C)C)c(O)cc2O)c1-c1ccc(CN2CCOCC2)cc1 [Luminespib] (partner 0.01 µM)
Method in brief: (§1)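 Cells from lung cancer lines were seeded into 1536-well plates and, one day later, dosed by pin tool. Treatments were either a single drug or a fixed dose of an anchor drug with five library-drug doses (not always all listed) in √10 steps. After 5 days, nuclei were stained in a one-step fixation (final 0.05% Triton X-100, 1% formaldehyde, 1 ug/ml Hoechst) and counted on 4× images, and relative viability is the treated-to-vehicle nuclei ratio, as the median of duplicate plates.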

AZ505 + Phenformin = compound: C1CCC(CC1)N(CCNCCC2=C3C(=C(C=C2)O)NC(=O)CO3)C(=O)CCNCCC4=CC(=C(C=C4)Cl)Cl [AZ505] + N=C(N)NC(=N)NCCc1ccccc1 [Phenformin] (partner 250 µM)
Method in brief: as §1

AZ505 + Decitabine = compound: C1CCC(CC1)N(CCNCCC2=C3C(=C(C=C2)O)NC(=O)CO3)C(=O)CCNCCC4=CC(=C(C=C4)Cl)Cl [AZ505] + Nc1ncn([C@H]2C[C@H](O)[C@@H](CO)O2)c(=O)n1 [Decitabine] (partner 2 µM)
Method in brief: as §1

Dactolisib + Linsitinib = compound: Cn1c(=O)n(-c2ccc(C(C)(C)C#N)cc2)c2c3cc(-c4cnc5ccccc5c4)ccc3ncc21 [Dactolisib] + C[C@]1(O)C[C@@H](c2nc(-c3ccc4ccc(-c5ccccc5)nc4c3)c3c(N)nccn32)C1 [Linsitinib] (partner 1 µM)
Method in brief: as §1

| Cell Line | relative viability (AZ505 + Luminespib; first compound 0.08 µM) | relative viability (AZ505 + Luminespib; first compound 0.253 µM) | relative viability (AZ505 + Luminespib; first compound 0.8 µM) | relative viability (AZ505 + Luminespib; first compound 2.53 µM) | relative viability (AZ505 + Luminespib; first compound 8 µM) | relative viability (AZ505 + Phenformin; first compound 0.08 µM) | relative viability (AZ505 + Phenformin; first compound 0.253 µM) | relative viability (AZ505 + Phenformin; first compound 0.8 µM) | relative viability (AZ505 + Phenformin; first compound 2.53 µM) | relative viability (AZ505 + Phenformin; first compound 8 µM) | relative viability (AZ505 + Decitabine; first compound 0.08 µM) | relative viability (AZ505 + Decitabine; first compound 0.253 µM) | relative viability (AZ505 + Decitabine; first compound 0.8 µM) | relative viability (AZ505 + Decitabine; first compound 2.53 µM) | relative viability (AZ505 + Decitabine; first compound 8 µM) | relative viability (Dactolisib + Linsitinib; first compound 0.002 µM) | relative viability (Dactolisib + Linsitinib; first compound 0.006325 µM) | relative viability (Dactolisib + Linsitinib; first compound 0.02 µM) | relative viability (Dactolisib + Linsitinib; first compound 0.06325 µM) | relative viability (Dactolisib + Linsitinib; first compound 0.2 µM) |
| --- | --- | --- | --- | --- | --- | --- | --- | --- | --- | --- | --- | --- | --- | --- | --- | --- | --- | --- | --- | --- |
| LK-2 | 0.189 | 0.175 | 0.172 | 0.225 | 0.176 | 0.387 | 0.43 | 0.514 | 0.713 | 0.427 | 0.22 | 0.32 | 0.331 | 0.33 | 0.329 | 0.389 | 0.508 | 0.507 | 0.169 | 0.251 |
| NCI-H2126 | 0.771 | 0.889 | 0.903 | 0.943 | 1.02 | 0.466 | 0.537 | 0.491 | 0.526 | 0.538 | 0.589 | 0.6 | 0.547 | 0.563 | 0.59 | 0.807 | 0.662 | 0.674 | 0.521 | 0.422 |
| NCI-H3122 | 0.0979 | 0.0993 | 0.0953 | 0.0964 | 0.0997 | 0.369 | 0.353 | 0.37 | 0.357 | 0.414 | 0.417 | 0.414 | 0.418 | 0.454 | 0.431 | 0.982 | 0.993 | 0.989 | 0.671 | 0.53 |
| NCI-H1975 | 0.198 | 0.197 | 0.197 | 0.162 | 0.2 | 0.348 | 0.402 | 0.419 | 0.405 | 0.429 | 0.345 | 0.355 | 0.407 | 0.322 | 0.403 | 1.01 | 0.847 | 0.551 | 0.32 | 0.256 |
| NCI-H1944 | 0.827 | 0.715 | 0.77 | 0.707 | 0.738 | 0.197 | 0.184 | 0.233 | 0.193 | 0.21 | 0.436 | 0.465 | 0.414 | 0.475 | 0.418 | 1.36 | 1.17 | 1.06 | 0.524 | 0.428 |
| LU99A | – | 0.268 | 0.212 | 0.175 | 0.286 | – | 0.741 | 0.987 | 0.715 | 0.853 | 0.841 | 0.921 | 0.802 | – | 0.87 | 0.572 | 0.468 | 0.307 | 0.218 | 0.223 |
| NCI-H2347 | 0.32 | – | – | – | 0.494 | 0.271 | – | – | – | 0.331 | 0.545 | 0.572 | 0.511 | 0.461 | 0.505 | 1.29 | 0.47 | 0.893 | 0.68 | 0.385 |
| HCC-78 | – | – | – | – | – | 0.531 | 0.611 | 0.707 | 0.731 | 0.728 | – | – | 0.738 | 0.705 | 0.801 | 0.476 | 0.457 | 0.383 | 0.223 | 0.207 |
| NCI-H1299 | – | – | – | – | – | – | – | – | – | – | – | – | – | – | – | 0.979 | 0.929 | 1.01 | 0.573 | 0.608 |
| NCI-H1650 | 0.206 | 0.227 | 0.202 | 0.19 | 0.199 | 0.429 | 0.4 | 0.423 | 0.405 | 0.463 | 0.367 | 0.405 | 0.502 | 0.368 | 0.427 | – | – | – | – | – |
| ChaGo-K-1 | 0.513 | 0.603 | 0.556 | 0.673 | 0.474 | 0.486 | 0.521 | 0.5 | 0.514 | 0.458 | 0.51 | 0.529 | 0.478 | 0.541 | 0.517 | – | – | – | – | – |
| NCI-H2228 | 0.114 | 0.182 | 0.145 | 0.138 | 0.14 | 0.291 | 0.222 | 0.279 | 0.392 | 0.224 | – | – | – | – | – | 0.659 | 0.488 | 0.436 | 0.323 | 0.193 |
| SW 900 | 0.193 | 0.183 | 0.137 | 0.195 | 0.167 | 0.618 | 0.522 | 0.588 | 0.695 | 0.647 | 0.537 | 0.545 | 0.419 | 0.462 | 0.489 | – | – | – | – | – |
| NCI-H1563 | 0.478 | 0.504 | 0.522 | 0.473 | 0.508 | 0.626 | 0.646 | 0.696 | 0.664 | 0.666 | – | – | – | – | – | 1.25 | 1.11 | 1.02 | 0.62 | 0.654 |
| A549 | – | – | – | – | – | 0.15 | 0.19 | 0.145 | 0.113 | 0.166 | – | 0.264 | 0.295 | 0.22 | 0.284 | 0.578 | 0.58 | 0.465 | 0.194 | 0.125 |
| NCI-H2342 | 0.792 | 0.662 | 0.814 | 0.687 | 0.738 | 0.573 | 0.559 | 0.733 | 0.697 | 0.677 | 0.792 | 0.759 | 0.728 | 0.734 | 0.841 | – | – | – | – | – |
| NCI-H2170 | 0.637 | 0.606 | 0.512 | 0.714 | 0.835 | 0.396 | 0.42 | 0.397 | 0.405 | 0.421 | 0.469 | 0.466 | 0.422 | 0.482 | 0.453 | – | – | – | – | – |
| NCI-H1623 | 0.604 | 0.46 | 0.58 | 0.503 | 0.681 | 0.54 | 0.504 | 0.621 | 0.509 | 0.629 | – | – | – | – | – | – | – | – | – | – |
| NCI-H522 | 1.12 | 1.19 | 1.2 | 1.33 | 1.18 | 0.526 | 0.521 | 0.61 | 0.732 | 0.626 | 0.602 | 0.689 | 0.657 | 0.599 | 0.634 | – | – | – | – | – |
| IA-LM | – | – | – | – | – | – | – | – | – | – | – | – | – | – | – | 0.681 | 0.613 | 0.6 | 0.124 | 0.206 |
| CAL-12T | 0.341 | 0.596 | 0.265 | 0.377 | 0.64 | 0.473 | 0.531 | 0.553 | 0.525 | 0.649 | – | – | – | – | – | 0.911 | 0.72 | 0.753 | 0.291 | 0.334 |
| EBC-1 | – | – | – | – | – | – | – | – | – | – | – | – | – | – | – | 0.974 | 0.756 | 0.863 | 0.202 | 0.177 |
